Reference: article PMC4126514 (Toxicology and applied pharmacology, 2011)

Experiments:
liver = conditions: when co-treated with TCDD; ref Mitchell et al. 2010; cited from earlier work
C57BL/6 mice = assay: Organ and body weights; type: in vivo, mouse; conditions: 24 h dose-response study
[1] = ref Diliberto et al. 1999; cited from earlier work
liver of C57BL/6 mice [2] = assay: Liver histopathology; type: in vivo, mouse
liver of C57BL/6 mice [3] = assay: Hepatic triglyceride measurement; type: in vivo, mouse
[4] = liver, after seven days; ref Kopec et al. 2010b; cited from earlier work
AhR = conditions: ref Craft et al. 2002; Honkakoski et al. 2003; Tabb et al. 2004; Kopec et al. 2010b; cited from earlier work
hepatic gene expression = conditions: liver, 300 mg/kg PCB153; ref Kopec et al. 2010b; cited from earlier work

Row | Compound | increase in hepatic proliferation (liver) | relative liver weight (RLW) (C57BL/6 mice) | hepatic TCDD accumulation, fold lower in Cyp1a2 null mice compared to wild types [1] | hepatic inflammation / cell infiltration (liver of C57BL/6 mice [2]; 24 h dose-response, TCDD 15, 30, 45 μg/kg, MIX three highest combinations) | hepatic inflammation (liver of C57BL/6 mice [2]; time course study) | hepatocellular vacuolization (liver of C57BL/6 mice [2]; time course study) | hepatic triglycerides (liver of C57BL/6 mice [3]) | hepatic level at 168 h [4] | hepatocellular hypertrophy (liver of C57BL/6 mice [2]; time course study) | AhR binding or activation (AhR) | down-regulation of Elovl5 (hepatic gene expression)
1 | Clc1cnc(Oc2ccc(Oc3ncc(Cl)cc3Cl)cc2)c(Cl)c1 [TCPOBOP] | 30–50% |  |  |  |  |  |  |  |  |  | 
2 | Clc1cc2c(cc1Cl)Oc1cc(Cl)c(Cl)cc1O2 [TCDD, 2,3,7,8-tetrachlorodibenzo-p-dioxin] |  | comparable increases in RLW in all but the lowest dose groups | 10 fold | minimal multifocal inflammation | moderate multifocal inflammation | marked hepatocellular vacuolization | significant increases | more modest reductions |  |  | 
3 | Clc1cc(Cl)c(-c2cc(Cl)c(Cl)cc2Cl)cc1Cl [PCB153, 2,2′,4,4′,5,5′-hexachlorobiphenyl] |  | increased RLW only at 100 and 300 mg/kg |  |  | did not elicit inflammation | vacuolization comparable to levels observed in vehicles | no effect | dramatically decreased | mild to moderate centrilobular hypertrophy | does not bind or activate | ~ 2 fold
